Reference: ChEMBL document CHEMBL1201862, “PubChem BioAssay data set” (2004)
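Results reflect a 48-hour exposure of cells in 96-well plates to compound at five concentrations. Abbreviation: GI50, concentration required for 50% inhibition of growth.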 Calls of active or inactive are those of the source. Rule as the data show it: active = GI50 up to about 1.1 µM and inactive = higher.

Tests used:
Experiment in all cases: inhibition of tumour cell growth, NCI panel, 48 h
[1] = tested on: 786-0
[2] = tested on: A549
[3] = tested on: ACHN
[4] = tested on: BT-549
[5] = tested on: CAKI-1
[6] = tested on: COLO 205
[7] = tested on: DU-145
[8] = tested on: EKVX
[9] = tested on: HCC 2998
[10] = tested on: HCT-116
[11] = tested on: HCT-15
[12] = tested on: HL-60
[13] = tested on: HOP-62
[14] = tested on: HOP-92
[15] = tested on: HT-29
[16] = tested on: IGROV-1
[17] = tested on: KM12
[18] = tested on: LOX IMVI
[19] = tested on: M14
[20] = tested on: MCF7
[21] = tested on: MDA-MB-231
[22] = tested on: MDA-MB-435
[23] = tested on: MDA-N
[24] = tested on: MOLT-4
[25] = tested on: NCI-H226
[26] = tested on: NCI-H23
[27] = tested on: NCI-H460
[28] = tested on: NCI/ADR-RES
[29] = tested on: OVCAR-3
[30] = tested on: OVCAR-4
[31] = tested on: OVCAR-5
[32] = tested on: OVCAR-8
[33] = tested on: PC-3
[34] = tested on: SF-295
[35] = tested on: SF-539
[36] = tested on: SK-MEL-28
[37] = tested on: SK-MEL-2
[38] = tested on: SK-MEL-5
[39] = tested on: SK-OV-3
[40] = tested on: SN12C
[41] = tested on: SNB-19
[42] = tested on: SNB-75
[43] = tested on: SW-620
[44] = tested on: T47D
[45] = tested on: TK-10
[46] = tested on: U-251
[47] = tested on: UACC-257
[48] = tested on: UO-31
[49] = tested on: A498
[50] = tested on: CCRF-CEM
[51] = tested on: Hs-578T
[52] = tested on: K562
[53] = tested on: Malme-3M
[54] = tested on: NCI-H522
[55] = tested on: RPMI-8226
[56] = tested on: SR
[57] = tested on: UACC-62

## CC1=CC(=O)C(=CN2C(=O)/C(=C\c3cccnc3)NC2=S)C(=O)O1
[1]
  GI50: > 100 µM (inactive)
[2]
  GI50: > 100 µM (inactive)
[3]
  GI50: > 100 µM (inactive)
[4]
  GI50: > 100 µM (inactive)
[5]
  GI50: > 100 µM (inactive)
[6]
  GI50: > 100 µM (inactive)
[7]
  GI50: > 100 µM (inactive)
[8]
  GI50: > 100 µM (inactive)
[9]
  GI50: > 100 µM (inactive)
[10]
  GI50: > 100 µM (inactive)
[11]
  GI50: > 100 µM
[12]
  GI50: 54.3 µM (inactive)
[13]
  GI50: > 100 µM (inactive)
[14]
  GI50: > 100 µM (inactive)
[15]
  GI50: > 100 µM (inactive)
[16]
  GI50: > 100 µM (inactive)
[17]
  GI50: > 100 µM (inactive)
[18]
  GI50: > 100 µM (inactive)
[19]
  GI50: > 100 µM (inactive)
[20]
  GI50: > 100 µM (inactive)
[21]
  GI50: > 100 µM (inactive)
[22]
  GI50: > 100 µM (inactive)
[23]
  GI50: > 100 µM (inactive)
[24]
  GI50: > 100 µM (inactive)
[25]
  GI50: > 100 µM (inactive)
[26]
  GI50: > 100 µM (inactive)
[27]
  GI50: > 100 µM (inactive)
[28]
  GI50: > 100 µM (inactive)
[29]
  GI50: > 100 µM (inactive)
[30]
  GI50: > 100 µM (inactive)
[31]
  GI50: > 100 µM (inactive)
[32]
  GI50: > 100 µM (inactive)
[33]
  GI50: > 100 µM (inactive)
[34]
  GI50: > 100 µM (inactive)
[35]
  GI50: > 100 µM (inactive)
[36]
  GI50: > 100 µM (inactive)
[37]
  GI50: > 100 µM (inactive)
[38]
  GI50: > 100 µM (inactive)
[39]
  GI50: > 100 µM (inactive)
[40]
  GI50: > 100 µM (inactive)
[41]
  GI50: > 100 µM (inactive)
[42]
  GI50: > 100 µM (inactive)
[43]
  GI50: > 100 µM (inactive)
[44]
  GI50: > 100 µM (inactive)
[45]
  GI50: > 100 µM (inactive)
[46]
  GI50: > 100 µM (inactive)
[47]
  GI50: > 100 µM (inactive)
[48]
  GI50: > 100 µM (inactive)

## COc1ccc(C2=NOC(N)(c3ccc(OC)cc3)C2)cc1 (centres undefined)
[1]
  GI50: 90.8 µM (inactive)
[49]
  GI50: 29 µM (inactive)
[2]
  GI50: > 100 µM (inactive)
[3]
  GI50: > 100 µM (inactive)
[4]
  GI50: > 100 µM (inactive)
[5]
  GI50: > 100 µM (inactive)
[50]
  GI50: > 100 µM (inactive)
[6]
  GI50: > 100 µM (inactive)
[7]
  GI50: > 100 µM (inactive)
[8]
  GI50: > 100 µM (inactive)
[9]
  GI50: > 100 µM (inactive)
[10]
  GI50: > 100 µM (inactive)
[11]
  GI50: > 100 µM
[12]
  GI50: 38.2 µM (inactive)
[13]
  GI50: 64.7 µM (inactive)
[14]
  GI50: > 100 µM (inactive)
[15]
  GI50: > 100 µM (inactive)
[51]
  GI50: 81.1 µM (inactive)
[16]
  GI50: > 100 µM (inactive)
[52]
  GI50: > 100 µM (inactive)
[17]
  GI50: 30.8 µM (inactive)
[18]
  GI50: > 100 µM (inactive)
[19]
  GI50: > 100 µM (inactive)
[20]
  GI50: > 100 µM (inactive)
[21]
  GI50: 81.5 µM (inactive)
[22]
  GI50: > 100 µM (inactive)
[23]
  GI50: > 100 µM (inactive)
[24]
  GI50: > 100 µM (inactive)
[53]
  GI50: 66.5 µM (inactive)
[25]
  GI50: > 100 µM (inactive)
[26]
  GI50: > 100 µM (inactive)
[27]
  GI50: > 100 µM (inactive)
[54]
  GI50: > 100 µM (inactive)
[28]
  GI50: > 100 µM (inactive)
[29]
  GI50: > 100 µM (inactive)
[30]
  GI50: 86.5 µM (inactive)
[31]
  GI50: > 100 µM (inactive)
[32]
  GI50: > 100 µM (inactive)
[33]
  GI50: > 100 µM (inactive)
[55]
  GI50: > 100 µM (inactive)
[34]
  GI50: > 100 µM (inactive)
[35]
  GI50: > 100 µM (inactive)
[36]
  GI50: > 100 µM (inactive)
[37]
  GI50: > 100 µM (inactive)
[38]
  GI50: 56.9 µM (inactive)
[39]
  GI50: > 100 µM (inactive)
[40]
  GI50: > 100 µM (inactive)
[41]
  GI50: > 100 µM (inactive)
[42]
  GI50: > 100 µM (inactive)
[56]
  GI50: > 100 µM (inactive)
[43]
  GI50: > 100 µM (inactive)
[45]
  GI50: > 100 µM (inactive)
[46]
  GI50: > 100 µM (inactive)
[47]
  GI50: > 100 µM (inactive)
[57]
  GI50: > 100 µM (inactive)
[48]
  GI50: > 100 µM (inactive)
